Values quoted from earlier work as cited in US20240148815A1, “FOOD SUPPLEMENT TO PROMOTE BODY WEIGHT LOSS” (NGN HEALTHCARE-NEW GENERATION NUTRACEUTICALS S.R.L., priority 2021, published 2024).
Structures can show the parent of a compound that is named as a salt.

Experiments:
overweight women = conditions: 4 weeks, calorie-reduced diet
rodents = conditions: intragastric preload prior to enteral glucose
obese mice = conditions: intragastric, 4 weeks
[1] = tested on: NCI-716 and STC-1 cells (T2R38); conditions: by interacting with T2R38
young healthy subjects = conditions: oral, encapsulated, 18 mg

Q: Which BMI (overweight women) does the source give for `N[C@@H](Cc1c[nH]c2ccc(O)cc12)C(=O)O` [5-hydroxytryptophan] here?
A: decrease

Q: What about the feeling of satiety (overweight women) of the same molecule?
A: significantly increased

Q: What does the source list for `CC[N+](CC)(CC(=O)Nc1c(C)cccc1C)Cc1ccccc1` [DB, denatonium benzoate]?
A: PYY secretion (NCI-H716 cells): stimulates; GLP-1 plasma levels (rodents): increase; blood glucose (rodents): reduction; gastric emptying (rodents): slowing; insulin concentration (rodents): increase; meal-induced GLP-1 secretion (obese mice): increase; body weight (obese mice; obese mice): reduction

Q: For `COc1ccc2cc3[n+](cc2c1OC)CCc1cc2c(cc1-3)OCO2` [berberine], which GLP-1 secretion [1] is on record?
A: dose-dependently stimulate

Q: For `NC(=S)Nc1ccccc1` [phenylthiourea], which GLP-1 secretion [1] is on record?
A: dose-dependently stimulate

Q: For `C=C[C@H]1C[N@@]2CC[C@H]1C[C@H]2[C@H](O)c1ccnc2ccc(OC)cc12` [quinine HCl], which CCK plasma concentrations (young healthy subjects) is on record?
A: increased

Q: What about the “energy intake during an ad libitum meal” value (young healthy subjects) of the same molecule?
A: reduced
